Laboratory results: US8937071B2, “Compounds as rearranged during transfection (RET) inhibitors” (GlaxoSmithKline Intellectual Property Development Limited, priority 2013, dated 2015)
Structures can show the parent of a compound that is named as a salt. Where two headings read alike, the source gives them in different places.

How the values were obtained:
RET kinase = RET kinase (Homo sapiens, UniProt P07949, C634W); experiment: RET kinase cell-based mechanistic assay (constitutive RET kinase phosphorylation in TT cells)
Chain of RET kinase (P07949 29-1114 C634W): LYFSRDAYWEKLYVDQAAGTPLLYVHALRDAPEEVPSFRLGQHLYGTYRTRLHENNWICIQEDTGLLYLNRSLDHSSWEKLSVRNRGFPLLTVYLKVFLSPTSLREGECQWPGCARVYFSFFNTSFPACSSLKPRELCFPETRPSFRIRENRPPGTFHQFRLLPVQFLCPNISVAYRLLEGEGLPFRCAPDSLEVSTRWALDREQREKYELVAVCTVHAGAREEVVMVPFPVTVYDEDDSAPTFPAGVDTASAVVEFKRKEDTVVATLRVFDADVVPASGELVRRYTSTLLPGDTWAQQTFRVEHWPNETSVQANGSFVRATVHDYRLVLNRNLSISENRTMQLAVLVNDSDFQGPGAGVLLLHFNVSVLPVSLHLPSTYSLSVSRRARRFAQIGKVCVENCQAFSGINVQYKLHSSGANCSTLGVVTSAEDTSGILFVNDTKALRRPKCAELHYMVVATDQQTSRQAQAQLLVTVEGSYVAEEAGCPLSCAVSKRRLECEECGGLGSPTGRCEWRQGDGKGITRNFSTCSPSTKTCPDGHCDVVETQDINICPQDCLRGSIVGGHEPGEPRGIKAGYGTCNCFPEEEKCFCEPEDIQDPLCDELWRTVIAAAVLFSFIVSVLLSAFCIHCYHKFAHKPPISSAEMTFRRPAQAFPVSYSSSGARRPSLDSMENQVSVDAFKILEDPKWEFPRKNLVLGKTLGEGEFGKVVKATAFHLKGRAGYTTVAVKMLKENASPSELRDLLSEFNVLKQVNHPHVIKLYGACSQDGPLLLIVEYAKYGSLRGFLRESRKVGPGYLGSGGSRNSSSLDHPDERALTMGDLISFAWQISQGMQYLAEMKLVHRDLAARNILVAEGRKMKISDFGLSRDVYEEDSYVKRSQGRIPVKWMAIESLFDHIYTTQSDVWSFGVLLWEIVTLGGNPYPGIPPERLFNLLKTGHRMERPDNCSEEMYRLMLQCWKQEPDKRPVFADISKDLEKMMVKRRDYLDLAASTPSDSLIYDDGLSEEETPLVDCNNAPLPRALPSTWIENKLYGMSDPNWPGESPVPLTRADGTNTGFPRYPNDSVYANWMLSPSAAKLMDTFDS
Description: RET Kinase Cell-Based Mechanistic Assay
The potency of the compound of the invention was tested for its ability to inhibit constitutive RET kinase phosphorylation in cell-based assay. […] 1.0E5 TT cells/well were plated in a 96-well cell culture plate and allowed to adhere overnight. […] IC50s were fitted using GraphPad Prism to a sigmoidal dose response.

TT cells = experiment: RET kinase cell-based proliferation assay; set-up: species or system human; settings: 192 h, read-out: RET IC50
From the text: RET Kinase Cell-Based Proliferation Assay

[1] = human RET kinase cell-based proliferation assay, TT cells, eight days, CellTiter-Glo, Table 4

| Structure (SMILES) | IC50 (RET kinase) [nM] | IC50 (TT cells; [1]) [nM] | IC50 (TT cells; Homo sapiens, TT) [nM] |
| --- | --- | --- | --- |
| CCOc1cc(-c2ccc(CC(=O)Nc3cnc(C(C)(C)O)c(C(F)(F)F)c3)c(F)c2)c[nH]c1=O [Example 1, 2-(4-(5-Ethoxy-6-oxo-1,6-dihydropyridin-3-yl)-2-fluorophenyl)-N-(6-(2-hydroxypropan-2-yl)-5-(trifluoromethyl)pyridin-3-yl)acetamide] | 100 to 500 | 100 to 500 |  |
| CCOc1ncc(NC(=O)Cc2ccc(-c3c[nH]c(=O)c(OCC)c3)cc2F)cc1C(F)(F)F [Example 2, N-(6-Ethoxy-5-(trifluoromethyl)pyridin-3-yl)-2-(4-(5-ethoxy-6-oxo-1,6-dihydropyridin-3-yl)-2-fluorophenyl)acetamide, Hydrochloride] | < 100 |  | 100 to 500 |
| CCOc1cc(=O)[nH]cc1-c1ccc(CC(=O)Nc2ccc(C#N)c(C(F)(F)F)c2)cc1F [Example 7, N-(4-Cyano-3-(trifluoromethyl)phenyl)-2-(4-(4-ethoxy-6-oxo-1,6-dihydropyridin-3-yl)-3-fluorophenyl)acetamide] | 100 to 500 | 100 to 500 |  |
| CCOc1cc(-c2ccc(CC(=O)Nc3ccc(C#N)c(C(F)(F)F)c3)c(F)c2)c[nH]c1=O [Example 9, N-(4-Cyano-3-(trifluoro-methyl)phenyl)-2-(4-(5-ethoxy-6-oxo-1,6-dihydro-pyridin-3-yl)-2-fluorophenyl)acetamide] | 100 to 500 | 100 to 500 |  |
| CCOc1cc(-c2ccc(CC(=O)Nc3cc(-n4cnc(C)c4)cc(C(F)(F)F)c3)c(F)c2)c[nH]c1=O [Example 11, 2-(4-(5-Ethoxy-6-oxo-1,6-dihydropyridin-3-yl)-2-fluorophenyl)-N-(3-(4-methyl-1H-imidazol-1-yl)-5-(trifluoromethyl)phenyl)acetamide, Hydrochloride] | < 100 |  | 100 to 500 |
| CCOc1cc(-c2ccc(CC(=O)Nc3ccc(CN(C)C)c(C(F)(F)F)c3)c(F)c2)c[nH]c1=O [Example 17, N-(4-((Dimethylamino)methyl)-3-(trifluoromethyl)phenyl)-2-(4-(5-ethoxy-6-oxo-1,6-dihydropyridin-3-yl)-2-fluorophenyl)acetamide, Hydrochloride] | < 100 |  | 100 to 500 |
| CCOc1cc(-c2ccc(CC(=O)Nc3ccc(Cl)c(Cl)c3)c(F)c2)c[nH]c1=O [Example 18, N-(3,4-Dichlorophenyl)-2-(4-(5-ethoxy-6-oxo-1,6-dihydropyridin-3-yl)-2-fluorophenyl)acetamide] | 500 to 10000 | 500 to 10000 |  |
| CCOc1cc(-c2ccc(CC(=O)Nc3cc(C(C)(C)C(F)(F)F)on3)c(F)c2)c[nH]c1=O [Example 19, 2-(4-(5-Ethoxy-6-oxo-1,6-dihydropyridin-3-yl)-2-fluorophenyl)-N-(5-(1,1,1-trifluoro-2-methylpropan-2-yl)isoxazol-3-yl)acetamide] | < 100 | < 100 |  |
| CCOc1cc(-c2ccc(CC(=O)Nc3ccc(CN4CCN(CC)CC4)c(C(F)(F)F)c3)c(F)c2)c[nH]c1=O [Example 21, 2-(4-(5-Ethoxy-6-oxo-1,6-dihydropyridin-3-yl)-2-fluorophenyl)-N-(4-((4-ethylpiperazin-1-yl)methyl)-3-(trifluoromethyl)phenyl)acetamide, 2 Hydrochloride] |  | < 100 |  |
| CCOc1cc(-c2ccc(CC(=O)Nc3cc(C(F)(F)F)c(F)cc3F)c(F)c2)c[nH]c1=O [Example 24, N-(2,4-difluoro-5-(trifluoromethyl)phenyl)-2-(4-(5-ethoxy-6-oxo-1,6-dihydropyridin-3-yl)-2-fluorophenyl)acetamide] | 100 to 500 | 500 to 10000 |  |
| CCOc1cc(-c2ccc(CC(=O)Nc3cc(C(F)(F)F)cc(C(F)(F)F)c3)c(F)c2)c[nH]c1=O [Example 25, N-(3,5-bis(trifluoromethyl)phenyl)-2-(4-(5-ethoxy-6-oxo-1,6-dihydropyridin-3-yl)-2-fluorophenyl)acetamide] | 100 to 500 | 500 to 10000 |  |
| CCOc1cc(-c2ccc(CC(=O)Nc3cc(C(F)(F)F)ccc3F)c(F)c2)c[nH]c1=O [Example 26, 2-(4-(5-ethoxy-6-oxo-1,6-dihydropyridin-3-yl)-2-fluorophenyl)-N-(2-fluoro-5-(trifluoromethyl)phenyl)acetamide] |  | 500 to 10000 |  |

The next lines start with results.

| IC50 (RET kinase) [nM] | Structure (SMILES) | IC50 (TT cells; [1]) [nM] | IC50 (TT cells; Homo sapiens, TT) [nM] |
| --- | --- | --- | --- |
| < 100 | CCOc1cc(-c2ccc(CC(=O)Nc3ccc(CC(C)(C)CO)c(C(F)(F)F)c3)c(F)c2)c[nH]c1=O [Example 5, 2-(4-(5-Ethoxy-6-oxo-1,6-dihydropyridin-3-yl)-2-fluorophenyl)-N-(4-(3-hydroxy-2,2-dimethylpropyl)-3-(trifluoromethyl)phenyl)acetamide] | < 100 |  |
| < 100 | CCOc1cc(-c2ccc(CC(=O)Nc3ccc(CC(C)(C)CO)c(C(F)(F)F)c3)cc2F)c[nH]c1=O [Example 6, 2-(4-(5-Ethoxy-6-oxo-1,6-dihydropyridin-3-yl)-3-fluorophenyl)-N-(4-(3-hydroxy-2,2-dimethylpropyl)-3-(trifluoromethyl)phenyl)acetamide] | < 100 |  |
| 100 to 500 | CCOc1cc(-c2ccc(CC(=O)Nc3ccc(OCCO)c(C(F)(F)F)c3)c(F)c2)c[nH]c1=O [Example 13, 2-(4-(5-Ethoxy-6-oxo-1,6-dihydropyridin-3-yl)-2-fluorophenyl)-N-(4-(2-hydroxyethoxy)-3-(trifluoromethyl)phenyl)acetamide] | 100 to 500 |  |
| 100 to 500 | CCOc1cc(-c2ccc(CC(=O)Nc3ccc(Cl)c(C(F)(F)F)c3)c(F)c2)c[nH]c1=O [Example 16, N-(4-Chloro-3-(trifluoromethyl)phenyl)-2-(4-(5-ethoxy-6-oxo-1,6-dihydropyridin-3-yl)-2-fluorophenyl)acetamide] | < 100 |  |
| 500 to 10000 | CCOc1cc(-c2ccc(CC(=O)Nc3ccc(C(N)=O)c(C(F)(F)F)c3)c(F)c2)c[nH]c1=O [Example 23, 4-(2-(4-(5-ethoxy-6-oxo-1,6-dihydropyridin-3-yl)-2-fluorophenyl)acetamido)-2-(trifluoromethyl)benzamide] | 500 to 10000 |  |
